Laboratory results taken from ChEMBL document CHEMBL2073803, “Role of MDR1 and MRP1 in trophoblast cells, elucidated using retroviral gene transfer” (Am J Physiol Cell Physiol, 2003).

Target: ATP-dependent translocase ABCB1 (Homo sapiens, UniProt P08183)
Assay: TP_TRANSPORTER: efflux in MDR1-expressing BeWo cells
Format: functional, cell-based

ATP-dependent translocase ABCB1, sequence (P08183 whole entry): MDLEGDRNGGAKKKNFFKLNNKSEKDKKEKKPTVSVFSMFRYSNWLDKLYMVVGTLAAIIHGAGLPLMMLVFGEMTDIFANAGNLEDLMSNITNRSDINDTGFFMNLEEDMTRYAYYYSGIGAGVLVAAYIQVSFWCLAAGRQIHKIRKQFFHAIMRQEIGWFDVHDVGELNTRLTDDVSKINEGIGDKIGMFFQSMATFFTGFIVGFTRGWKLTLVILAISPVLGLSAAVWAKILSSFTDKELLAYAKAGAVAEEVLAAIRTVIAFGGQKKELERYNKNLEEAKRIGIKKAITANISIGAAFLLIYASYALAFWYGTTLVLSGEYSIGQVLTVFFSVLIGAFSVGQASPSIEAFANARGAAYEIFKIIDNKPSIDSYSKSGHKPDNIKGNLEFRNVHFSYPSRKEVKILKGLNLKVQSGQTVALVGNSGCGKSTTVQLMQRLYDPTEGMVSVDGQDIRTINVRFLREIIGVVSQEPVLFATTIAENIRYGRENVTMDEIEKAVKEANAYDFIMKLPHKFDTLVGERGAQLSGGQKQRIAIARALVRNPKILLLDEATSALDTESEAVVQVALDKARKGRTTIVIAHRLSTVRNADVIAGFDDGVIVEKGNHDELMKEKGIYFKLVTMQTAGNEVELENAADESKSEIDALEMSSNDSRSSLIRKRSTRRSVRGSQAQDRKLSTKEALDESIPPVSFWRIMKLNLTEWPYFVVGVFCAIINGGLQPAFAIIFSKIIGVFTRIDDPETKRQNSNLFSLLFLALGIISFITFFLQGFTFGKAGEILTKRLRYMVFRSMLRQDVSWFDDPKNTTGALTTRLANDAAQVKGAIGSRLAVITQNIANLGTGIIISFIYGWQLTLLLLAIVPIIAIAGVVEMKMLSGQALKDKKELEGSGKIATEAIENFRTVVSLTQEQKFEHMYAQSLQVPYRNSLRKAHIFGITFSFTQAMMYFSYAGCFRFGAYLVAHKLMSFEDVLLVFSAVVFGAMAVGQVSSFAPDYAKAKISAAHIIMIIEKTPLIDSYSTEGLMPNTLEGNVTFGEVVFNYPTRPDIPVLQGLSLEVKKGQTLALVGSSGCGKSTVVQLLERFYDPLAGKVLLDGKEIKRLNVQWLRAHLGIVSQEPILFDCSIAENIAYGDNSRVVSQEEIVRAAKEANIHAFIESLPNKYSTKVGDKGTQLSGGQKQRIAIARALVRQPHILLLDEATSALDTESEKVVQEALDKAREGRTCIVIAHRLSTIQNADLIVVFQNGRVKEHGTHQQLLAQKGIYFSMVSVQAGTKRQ

`CC[C@]1(O)C[C@@H]2CN(CCc3c([nH]c4ccccc34)[C@@](C(=O)OC)(c3cc4c(cc3OC)N(C)[C@H]3[C@@](O)(C(=O)OC)[C@H](OC(C)=O)[C@]5(CC)C=CCN6CC[C@]43[C@@H]65)C2)C1` [VINBLASTINE] was tested, and the Activity was “substrate [+]”.
